From patent US8552059B2, “Treatment of ischemic episodes and cerebroprotection through misoprostol” (The Board of Trustees of the Leland Stanford Junior …, priority 2009, dated 2013)

Test system: murine middle cerebral artery occlusion-reperfusion (MCAO-RP) model of transient focal ischemia
Assay: Middle cerebral artery occlusion-reperfusion (MCAO-RP), 90 min MCAO, misoprostol
Assay type: in vivo, mouse
Conditions: p<0.05
Method: Focal cerebral ischemia was induced by 90 minutes of reversible right middle cerebral artery occlusion (MCAO) under isofluorane anesthesia followed by 22.5 hours or 72 hours of reperfusion and terminal histopathology, as previously described (McCullough et al., 2004). […] Mice were given 3 subcutaneous injections of either vehicle (hydroxypropyl-methyl cellulose; HPMC) or 1 mg/kg misoprostol in HPMC (1:100 misoprostol:HPMC; Pfizer, Groton, Conn.) (Best et al., 1995) either at onset of MCAO or 2 hours after MCAO, followed by two subsequent doses 6 and 12 hours later. In the first experiment, misoprostol was given at onset of MCAO, with the two subsequent injections given at 6 hours and at 12 hours post MCAO, and brains were analyzed 22.5 hours later. In the second experiment, treatment with the initial dose of misoprostol was delayed two hours after the onset of MCAO, and two subsequent doses were then administered at 8 hours and 14 hours after MCAO and brains were analyzed at 22.5 hours later. In the third experiment, a delayed time point was tested, and misoprostol was given 2 hours after MCAO and again at 6 and 12 hours; brains were examined at 72 hours. […] A fifth cohort of EP3−/− and +/+ mice underwent treatment with either vehicle or misoprostol at MCAO, with subsequent administration of misoprostol or vehicle at 6 and 12 hours post MCAO and brain examination 22.5 hours later.

SMILES: CCCCC(C)(O)C/C=C/[C@H]1[C@H](O)CC(=O)[C@@H]1CCCCCCC(=O)OC (mixture of isomers) [misoprostol]
- Neurological scores (1 mg/kg s.c. 2 h after MCAO, again at 6 and 12 h, 72 h, comparison value 2.6+/−0.24): 1.0+/−0.22
- Neurological scores (1 mg/kg s.c. 2 h after MCAO, then at 8 and 14 h, 24 h, comparison value 2.6+/−0.3): 1.7+/−0.3
- Neurological scores (1 mg/kg s.c. at onset of 90 min MCAO, then at 6 and 12 h, 24 h, comparison value 2.4+/−0.2): 1.8+/−0.2
